The results in this text go back to US20050095663A1, “Process for screening fungitoxic compounds” (priority 2002, published 2005).

Read-outs that look alike come from different tables or passages of the source.

Experiment [1] has as its system Candida albicans (American Type Culture Collection strain 10231). Nature of the experiment: Control of Candida albicans infection in mice. In kind it is in vivo. The conditions noted are these: 10 mg/kg, mortality over 10 days. The protocol:
Compound 1 (6-(4-chlorophenyl)-2-(2′-pentynyl)pyridazinone, described as compound 109 in European Patent Publication No. EP 478 195 A1) in 5% dimethylsulfoxide (DMSO) in saline solution was administered intraperitoneally 1 h before and at 4, 24, 48 and 72 h after intravenous inoculation with Candida albicans (American Type Culture Collection strain 10231). Ten mice were used for each treatment. Mortality was recorded over a period of 10 days.

In experiment [2] the test system is Saccharomyces cerevisiae (strain X2180-1A). Nature of the experiment: Effect of fatty acids on fungitoxicity (growth inhibition, absorbance at 700 nm). The conditions noted are these: 22 h. It is filed as cell-based. The procedure:
Fifty ml of YPG culture medium (10 g yeast extract, 20 g peptone, and 20 g glucose per liter of water) in a 250 ml Erlenmeyer flask was inoculated with Saccharomyces cereviae (strain X2180-1A) to give an absorbance at 700 nm of 0.02. This culture was incubated for 18 h at 30° C. with shaking at 225 rpm. The cells were harvested by centrifugation, washed once with SD medium (6.7 g Bacto-yeast nitrogen base and 20 g glucose per liter of water), and suspended in SD medium to give an Absorbance at 700 nm of 0.04. Aliquots (5 ml) of cell suspension were distributed in 20 ml capacity glass vials. Treatments containing compound 1 or cerulenin received 25 μl of a solution of compound in dimethylsulfoxide (DMSO) at 240 ppm or 160 ppm, respectively. Control treatments without compound 1 or cerulenin received 25 ul DMSO. Treatments containing a fatty acid received 25 μl of a 2 mM solution of the fatty acid in a 1% solution of Triton X-100 providing a concentration of 10 μM. Treatments without fatty acid received 25 ul of 1% Triton X-100. All treatments were carried out in duplicate. Vials were incubated for 22 h at 30° C. with shaking at 225 rpm. Growth of the cells was then estimated by diluting the cells in each treatment 3-fold with SD medium and measuring the asorbance at 700 nm. The results in Table 3 show inhibition of growth expressed as a percentage of growth in DMSO controls containing Triton X-100 but lacking Compound 1, cerulenin or fatty acid.

Take `C[C@@H]1[C@H](O)[C@@H](C)/C=C/C=C/C=C/C=C/C=C/C=C/C=C/[C@H](O[C@@H]2O[C@H](C)[C@@H](O)[C@H](N)[C@@H]2O)C[C@@H]2O[C@](O)(C[C@@H](O)C[C@@H](O)[C@H](O)CC[C@@H](O)C[C@@H](O)CC(=O)O[C@H]1C)C[C@H](O)[C@H]2C(=O)O` [Amphotericin B, reference compound]: in experiment [1], the “% Survival” value is recorded as 100%.

As for `C/C=C/C/C=C/CCC(=O)[C@H]1O[C@H]1C(N)=O` [Cerulenin, cerulenin, reference compound], the inhibition at 0.8 ppm in experiment [2] (read-out: % Inhibition of growth, 0.8 ppm, no fatty acid, 22 h) stood at 35.6%; in experiment [2] (read-out: % Inhibition of growth, 0.8 ppm, oleic acid 10 μM, 22 h), 3.3%; in experiment [2] (read-out: % Inhibition of growth, 0.8 ppm, palmitic acid 10 μM, 22 h) it was 15.2%; in experiment [2] (read-out: % Inhibition of growth, 0.8 ppm, palmitoleic acid 10 μM, 22 h) it was 4.5%; in experiment [2] (read-out: % Inhibition of growth, 0.8 ppm, pentadecanoic acid 10 μM, 22 h) it was 20.3%.
